Holding throughout (experiment): biochemical
Common to all, as to design: endogenous in cells; host or cells: K562 cell extract; species or system K562 (extract); replicate k of n = 2 (each experiment ID is one independent experiment; two experiment IDs per compound)
Holding throughout (settings): read-out: KDapp

The target in one assay is T1, PKMYT1 (Homo sapiens, UniProt Q99640).
T1 sequence (Q99640 1-499): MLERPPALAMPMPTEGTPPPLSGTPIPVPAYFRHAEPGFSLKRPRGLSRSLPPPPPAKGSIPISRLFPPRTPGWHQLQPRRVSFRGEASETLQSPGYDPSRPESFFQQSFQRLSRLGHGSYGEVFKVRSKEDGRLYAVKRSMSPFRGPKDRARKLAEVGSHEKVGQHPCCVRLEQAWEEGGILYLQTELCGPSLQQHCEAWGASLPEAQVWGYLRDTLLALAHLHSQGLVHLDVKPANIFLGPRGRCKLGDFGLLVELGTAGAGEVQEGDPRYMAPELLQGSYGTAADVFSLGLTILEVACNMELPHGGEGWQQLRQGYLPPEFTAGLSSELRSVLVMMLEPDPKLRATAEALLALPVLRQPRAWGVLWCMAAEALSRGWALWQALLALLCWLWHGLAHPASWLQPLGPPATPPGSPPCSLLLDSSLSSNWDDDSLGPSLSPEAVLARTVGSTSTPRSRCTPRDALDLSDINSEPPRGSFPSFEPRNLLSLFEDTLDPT

The next assay addresses T2, MAP3K7 (Homo sapiens, UniProt O43318).
T2 sequence (O43318 1-606): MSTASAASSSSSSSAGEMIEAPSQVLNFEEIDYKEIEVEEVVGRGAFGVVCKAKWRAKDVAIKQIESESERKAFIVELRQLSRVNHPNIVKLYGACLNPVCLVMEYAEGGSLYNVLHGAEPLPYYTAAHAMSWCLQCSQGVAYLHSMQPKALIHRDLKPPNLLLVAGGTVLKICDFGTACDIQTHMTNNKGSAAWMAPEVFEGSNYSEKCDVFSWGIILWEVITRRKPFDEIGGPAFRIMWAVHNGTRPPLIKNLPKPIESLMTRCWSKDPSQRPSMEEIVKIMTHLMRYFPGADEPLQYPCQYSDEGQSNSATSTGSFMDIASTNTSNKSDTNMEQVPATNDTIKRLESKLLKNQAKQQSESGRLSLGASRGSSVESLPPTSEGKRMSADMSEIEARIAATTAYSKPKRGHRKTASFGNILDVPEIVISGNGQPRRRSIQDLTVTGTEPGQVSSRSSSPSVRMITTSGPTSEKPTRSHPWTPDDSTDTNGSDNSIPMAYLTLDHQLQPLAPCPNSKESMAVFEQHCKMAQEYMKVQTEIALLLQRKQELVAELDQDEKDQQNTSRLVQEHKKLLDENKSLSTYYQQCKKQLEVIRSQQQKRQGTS

The target of a further assay is T3, NEK9 (Homo sapiens, UniProt Q8TD19).
T3 sequence (Q8TD19 1-979): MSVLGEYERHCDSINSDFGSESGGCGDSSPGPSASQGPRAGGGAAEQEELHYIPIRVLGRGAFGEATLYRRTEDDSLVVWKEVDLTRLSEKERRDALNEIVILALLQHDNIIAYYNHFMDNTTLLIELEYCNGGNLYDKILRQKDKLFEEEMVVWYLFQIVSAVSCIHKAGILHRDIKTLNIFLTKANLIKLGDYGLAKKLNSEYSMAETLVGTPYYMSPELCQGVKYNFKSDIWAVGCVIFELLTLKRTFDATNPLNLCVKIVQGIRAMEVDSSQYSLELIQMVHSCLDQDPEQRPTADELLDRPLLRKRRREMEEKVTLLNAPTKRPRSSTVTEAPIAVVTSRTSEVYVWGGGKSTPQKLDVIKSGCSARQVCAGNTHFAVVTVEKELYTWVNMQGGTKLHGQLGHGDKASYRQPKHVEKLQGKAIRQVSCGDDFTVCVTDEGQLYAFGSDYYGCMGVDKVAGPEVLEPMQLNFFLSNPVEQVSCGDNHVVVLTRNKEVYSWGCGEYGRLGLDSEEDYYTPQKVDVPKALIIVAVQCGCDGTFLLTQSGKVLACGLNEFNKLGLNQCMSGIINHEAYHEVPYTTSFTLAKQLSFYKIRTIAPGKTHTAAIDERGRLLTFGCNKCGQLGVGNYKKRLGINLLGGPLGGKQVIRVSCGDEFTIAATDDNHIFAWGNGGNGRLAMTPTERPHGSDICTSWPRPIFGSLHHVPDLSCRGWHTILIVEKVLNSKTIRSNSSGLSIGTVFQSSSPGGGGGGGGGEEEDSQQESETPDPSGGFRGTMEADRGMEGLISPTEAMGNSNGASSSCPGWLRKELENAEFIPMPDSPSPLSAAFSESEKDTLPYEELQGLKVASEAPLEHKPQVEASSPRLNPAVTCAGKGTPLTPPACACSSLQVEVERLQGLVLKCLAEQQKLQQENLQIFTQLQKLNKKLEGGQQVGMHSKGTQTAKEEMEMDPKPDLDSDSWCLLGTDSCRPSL

In a further assay the target is T4, NLK (Homo sapiens, UniProt Q9UBE8).
T4 sequence (Q9UBE8 1-527): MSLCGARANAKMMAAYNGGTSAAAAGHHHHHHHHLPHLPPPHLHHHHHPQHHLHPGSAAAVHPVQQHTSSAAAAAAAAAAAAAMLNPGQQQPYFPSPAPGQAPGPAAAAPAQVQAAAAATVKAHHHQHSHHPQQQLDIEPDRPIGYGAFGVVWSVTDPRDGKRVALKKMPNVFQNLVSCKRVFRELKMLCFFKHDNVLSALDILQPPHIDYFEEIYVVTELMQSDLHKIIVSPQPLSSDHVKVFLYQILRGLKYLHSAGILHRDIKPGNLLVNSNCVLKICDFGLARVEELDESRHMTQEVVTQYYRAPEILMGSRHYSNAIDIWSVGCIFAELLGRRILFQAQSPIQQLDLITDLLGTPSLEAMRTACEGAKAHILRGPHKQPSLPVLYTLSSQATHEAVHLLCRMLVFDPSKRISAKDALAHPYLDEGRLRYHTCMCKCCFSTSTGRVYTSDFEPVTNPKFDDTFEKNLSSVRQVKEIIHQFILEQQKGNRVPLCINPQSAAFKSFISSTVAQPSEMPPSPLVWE

pKd: −log10 of the molar value. Values joined by “and” are separate entries in the source; they are usually repeats but may differ in a detail not shown here. Identical values can stand only once.

Regarding `CN1CCN(c2ccc(Nc3ncc(C#N)c(Nc4ccccc4C(N)=O)n3)cc2)CC1.Cl` [TCMDC-134116], the pKd is 6.05 and 6.22 at PKMYT1; 5.83 and 6.09 on MAP3K7; 6.40 and 6.53 at NEK9; 6.02 and 6.05 on NLK.
